Measured values taken from patent US10543212B2, “Substituted amines for treating cardiac diseases” (Cardurion Pharmaceuticals, LLC, priority 2017, dated 2020).

The molecules below were run against T1, Full-length, GST-tagged, human CaMKIIδ (Homo sapiens, UniProt Q13557) (assay: CaMKIIδ binding assay (TR-FRET with BODIPY-labeled probe ligand)). Conditions: Table 2; activity class for CaMKIIδ.
T1 construct: Full-Length, Glutathione-S-Transferase(GST)-Tagged, Human CaMKIIδ was purchased from Carna Biosciences; purchased Carna Biosciences 02-111
T1 sequence (Q13557 1-478 isoform Q13557-12): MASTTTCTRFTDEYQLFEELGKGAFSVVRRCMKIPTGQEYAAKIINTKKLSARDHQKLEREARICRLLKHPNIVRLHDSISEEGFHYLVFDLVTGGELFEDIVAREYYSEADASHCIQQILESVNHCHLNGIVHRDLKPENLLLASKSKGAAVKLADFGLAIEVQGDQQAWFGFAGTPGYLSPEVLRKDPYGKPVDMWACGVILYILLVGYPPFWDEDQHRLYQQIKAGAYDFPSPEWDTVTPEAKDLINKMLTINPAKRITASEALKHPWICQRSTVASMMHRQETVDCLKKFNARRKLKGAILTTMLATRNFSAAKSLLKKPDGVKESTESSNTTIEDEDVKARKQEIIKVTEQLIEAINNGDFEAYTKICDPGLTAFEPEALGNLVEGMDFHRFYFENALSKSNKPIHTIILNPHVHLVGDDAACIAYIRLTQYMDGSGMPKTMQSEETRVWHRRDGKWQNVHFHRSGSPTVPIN
How it was run: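 Compounds were tested as 4-fold, eight-point series for 1 hr at room temperature, and IC50 was obtained by logistic fitting against a 3 μM parent-compound control. Signal came from displacement of a 300 nM BODIPY ligand from 0.5 nM GST-CaMKIIδ, detected via Tb-anti-GST in calmodulin/Ca2+ (pH 7.6).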
With `COc1cc(N2CCNCC2)ncc1Nc1ncc(-c2ccc(Cl)c(O[C@@H](C)Cn3cnnn3)c2)cn1` [Example 622, (S)-5-(3-((1-(1H-tetrazol-1-yl)propan-2-yl)oxy)-4-chlorophenyl)-N-(4-methoxy-6-(piperazin-1-yl)pyridin-3-yl)pyrimidin-2-amine] the IC50 was < 10 nM.
For `CC(C)c1nn(C2CCN(C3CCOCC3)CC2)cc1Nc1ncc(-c2ccc(Cl)c(O[C@@H](C)Cn3cnnn3)c2)cn1` [Example 623, (S)-5-(3-((1-(1H-tetrazol-1-yl)propan-2-yl)oxy)-4-chlorophenyl)-N-(3-isopropyl-1-(1-(tetrahydro-2H-pyran-4-yl)piperidin-4-yl)-1H-pyrazol-4-yl)pyrimidin-2-amine], the IC50 was < 10 nM.
With `CCn1cc(Nc2ncc(-c3ccc(Cl)c(O[C@@H](C)Cn4cnnn4)c3)cn2)c(N2CCOCC2)n1` [Example 624, (S)-5-(3-((1-(1H-tetrazol-1-yl)propan-2-yl)oxy)-4-chlorophenyl)-N-(1-ethyl-3-morpholino-1H-pyrazol-4-yl)pyrimidin-2-amine] the IC50 was ≥ 100 nM.
In the case of `C[C@@H](Cn1cnnn1)Oc1cc(-c2cnc(Nc3cn([C@H]4CC[C@@H](C(=O)O)CC4)nc3C(F)(F)F)nc2)ccc1Cl` [Example 625, cis-(S)-4-(4-((5-(3-((1-(1H-tetrazol-1-yl)propan-2-yl)oxy)-4-chlorophenyl)pyrimidin-2-yl)amino)-3-(trifluoromethyl)-1H-pyrazol-1-yl)cyclohexane-1-carboxylic acid], the IC50 is reported as ≥ 100 nM.
For `C[C@@H](Cn1cnnn1)Oc1cc(-c2cnc(Nc3cn([C@H]4CC[C@H](C(=O)O)CC4)nc3C(F)(F)F)nc2)ccc1Cl` [Example 626, trans-(S)-4-(4-((5-(3-((1-(1H-tetrazol-1-yl)propan-2-yl)oxy)-4-chlorophenyl)pyrimidin-2-yl)amino)-3-(trifluoromethyl)-1H-pyrazol-1-yl)cyclohexane-1-carboxylic acid], the IC50 was 10 to 100 nM.
Work on `C[C@@H](Cn1cnnn1)Oc1cc(-c2cnc(Nc3cc(N4CC(N5CCOCC5)C4)ncc3OC(F)(F)F)nc2)ccc1Cl` [Example 627, (S)-5-(3-((1-(1H-tetrazol-1-yl)propan-2-yl)oxy)-4-chlorophenyl)-N-(2-(3-morpholinoazetidin-1-yl)-5-(trifluoromethoxy)pyridin-4-yl)pyrimidin-2-amine] yielded an IC50 of 10 to 100 nM.
`C[C@@H](Cn1cnnn1)Oc1cc(-c2cnc(Nc3c[nH]nc3C(F)(F)F)nc2)ccc1Cl` [Example 628, (S)-5-(3-((1-(1H-tetrazol-1-yl)propan-2-yl)oxy)-4-chlorophenyl)-N-(3-(trifluoromethyl)-1H-pyrazol-4-yl)pyrimidin-2-amine] showed an IC50 of 10 to 100 nM.
`C[C@@H](Cn1cnnn1)Oc1cc(-c2cnc(Nc3cn(C4CCCCNC4=O)nc3C(F)(F)F)nc2)ccc1Cl` (stereo partly drawn) [Example 629, 3-(4-((5-(3-(((S)-1-(1H-tetrazol-1-yl)propan-2-yl)oxy)-4-chlorophenyl)pyrimidin-2-yl)amino)-3-(trifluoromethyl)-1H-pyrazol-1-yl)azepan-2-one] was tested, and the IC50 was < 10 nM.
`C[C@@H](Cn1cnnn1)Oc1cc(-c2cnc(Nc3cn(CCNC(=O)c4ccccc4)nc3C(F)(F)F)nc2)ccc1Cl` [Example 630, (S)-N-(2-(4-((5-(3-((1-(1H-tetrazol-1-yl)propan-2-yl)oxy)-4-chlorophenyl)pyrimidin-2-yl)amino)-3-(trifluoromethyl)-1H-pyrazol-1-yl)ethyl)benzamide] was tested, and the IC50 was ≥ 100 nM.
In the case of `C[C@@H](Cn1cnnn1)Oc1cc(-c2cnc(Nc3cn(CCN4CCCC4)nc3C(F)(F)F)nc2)ccc1Cl` [Example 631, (S)-5-(3-((1-(1H-tetrazol-1-yl)propan-2-yl)oxy)-4-chlorophenyl)-N-(1-(2-(pyrrolidin-1-yl)ethyl)-3-(trifluoromethyl)-1H-pyrazol-4-yl)pyrimidin-2-amine], the IC50 is reported as < 10 nM.
For `CCc1nn(C2CCN(C3CCOCC3)CC2)cc1Nc1ncc(-c2ccc(Cl)c(O[C@@H](C)Cn3cnnn3)c2)cn1` [Example 632, (S)-5-(3-((1-(1H-tetrazol-1-yl)propan-2-yl)oxy)-4-chlorophenyl)-N-(3-ethyl-1-(1-(tetrahydro-2H-pyran-4-yl)piperidin-4-yl)-1H-pyrazol-4-yl)pyrimidin-2-amine], the IC50 was < 10 nM.
`C[C@@H](Cn1cnnn1)Oc1cc(-c2cnc(Nc3cn(CCN4CCOCC4)nc3C(F)(F)F)nc2)ccc1Cl` [Example 633, (S)-5-(3-((1-(1H-tetrazol-1-yl)propan-2-yl)oxy)-4-chlorophenyl)-N-(1-(2-morpholinoethyl)-3-(trifluoromethyl)-1H-pyrazol-4-yl)pyrimidin-2-amine] gave an IC50 of 10 to 100 nM.
Work on `COc1cc(N2C[C@@H]3C[C@H]2CN3)ccc1Nc1ncc(-c2ccc(Cl)c(O[C@@H](C)Cn3cnnn3)c2)cn1` [Example 634, 5-(3-(((S)-1-(1H-tetrazol-1-yl)propan-2-yl)oxy)-4-chlorophenyl)-N-(4-((1S,45)-2,5-diazabicyclo[2.2.1]heptan-2-yl)-2-methoxyphenyl)pyrimidin-2-amine] yielded an IC50 of 10 to 100 nM.
`C[C@@H](Cn1cnnn1)Oc1cc(-c2cnc(Nc3cn(CC4CCCN(C)C4)nc3C(F)(F)F)nc2)ccc1Cl` (stereo partly drawn) [Example 635, 5-(3-(((S)-1-(1H-tetrazol-1-yl)propan-2-yl)oxy)-4-chlorophenyl)-N-(1-((1-methylpiperidin-3-yl)methyl)-3-(trifluoromethyl)-1H-pyrazol-4-yl)pyrimidin-2-amine] was tested, and the IC50 was 10 to 100 nM.
With `COc1nc(N2CCN(C3CCC(F)(F)CC3)CC2)ccc1Nc1ncc(-c2ccc(Cl)c(O[C@@H](C)Cn3cnnn3)c2)cn1` [Example 636, (S)-5-(3-((1-(1H-tetrazol-1-yl)propan-2-yl)oxy)-4-chlorophenyl)-N-(6-(4-(4,4-difluorocyclohexyl)piperazin-1-yl)-2-methoxypyridin-3-yl)pyrimidin-2-amine] the IC50 was 10 to 100 nM.
With `COc1nc(N2CCN(CC(F)(F)F)CC2)ccc1Nc1ncc(-c2ccc(Cl)c(O[C@@H](C)Cn3cnnn3)c2)cn1` [Example 637, (S)-5-(3-((1-(1H-tetrazol-1-yl)propan-2-yl)oxy)-4-chlorophenyl)-N-(2-methoxy-6-(4-(2,2,2-trifluoroethyl)piperazin-1-yl)pyridin-3-yl)pyrimidin-2-amine] the IC50 was ≥ 100 nM.
In the case of `COc1nc(N2CCN(C(=O)C(F)(F)F)CC2)ccc1Nc1ncc(-c2ccc(Cl)c(O[C@@H](C)Cn3cnnn3)c2)cn1` [Example 638, (S)-1-(4-(5-((5-(3-((1-(1H-tetrazol-1-yl)propan-2-yl)oxy)-4-chlorophenyl)pyrimidin-2-yl)amino)-6-methoxypyridin-2-yl)piperazin-1-yl)-2,2,2-trifluoroethan-1-one], the IC50 is reported as ≥ 100 nM.
`COc1nc(N2CCN(CC3COC3)CC2)ccc1Nc1ncc(-c2ccc(Cl)c(O[C@@H](C)Cn3cnnn3)c2)cn1` [Example 639, (S)-5-(3-((1-(1H-tetrazol-1-yl)propan-2-yl)oxy)-4-chlorophenyl)-N-(2-methoxy-6-(4-(oxetan-3-ylmethyl)piperazin-1-yl)pyridin-3-yl)pyrimidin-2-amine] gave an IC50 of 10 to 100 nM.
Work on `COc1nc(N2CCN(C3CCOC3)CC2)ccc1Nc1ncc(-c2ccc(Cl)c(O[C@@H](C)Cn3cnnn3)c2)cn1` (stereo partly drawn) [Example 640, 5-(3-(((S)-1-(1H-tetrazol-1-yl)propan-2-yl)oxy)-4-chlorophenyl)-N-(2-methoxy-6-(4-(tetrahydrofuran-3-yl)piperazin-1-yl)pyridin-3-yl)pyrimidin-2-amine] yielded an IC50 of 10 to 100 nM.
